This is an account of results in US10392338B2, “Spirofuranone compounds, derivatives thereof and processes for their preparation” (Yissum Research Development Company of The Hebrew …, priority 2015, dated 2019).

“Also recorded” adds a separate entry of the source.

One experiment addresses rTRPV1(Y511G) (Rattus norvegicus, UniProt O35433, Y511G). The settings on record: 300 μM; VBS domain mutated.
For experiment [1], the system named is small-diameter (C-fiber) rat TG neurons. The experiment can be described thus: Current-clamp whole-cell recording of membrane potential in dissociated TG sensory neurons. It counts as cell-based. The settings on record: capsaicin 0.2 μM; current clamp I=0; P2 rat TG neurons. An excerpt: In dissociated sensory neurons from the trigeminal ganglion (TG) of P2 rat, the inventors have recorded the membrane potential following the application of the different molecules, using current-clamp mode in the whole-cell configuration. […] In contrast, the compound of the invention have evoked slow (in comparison to capsaicin), ˜20 mV depolarization, with no action potential firing (FIG. 16E, upper trace).

rTRPV1(Y511G), sequence (O35433 whole entry Y511G, the tested form may be a part): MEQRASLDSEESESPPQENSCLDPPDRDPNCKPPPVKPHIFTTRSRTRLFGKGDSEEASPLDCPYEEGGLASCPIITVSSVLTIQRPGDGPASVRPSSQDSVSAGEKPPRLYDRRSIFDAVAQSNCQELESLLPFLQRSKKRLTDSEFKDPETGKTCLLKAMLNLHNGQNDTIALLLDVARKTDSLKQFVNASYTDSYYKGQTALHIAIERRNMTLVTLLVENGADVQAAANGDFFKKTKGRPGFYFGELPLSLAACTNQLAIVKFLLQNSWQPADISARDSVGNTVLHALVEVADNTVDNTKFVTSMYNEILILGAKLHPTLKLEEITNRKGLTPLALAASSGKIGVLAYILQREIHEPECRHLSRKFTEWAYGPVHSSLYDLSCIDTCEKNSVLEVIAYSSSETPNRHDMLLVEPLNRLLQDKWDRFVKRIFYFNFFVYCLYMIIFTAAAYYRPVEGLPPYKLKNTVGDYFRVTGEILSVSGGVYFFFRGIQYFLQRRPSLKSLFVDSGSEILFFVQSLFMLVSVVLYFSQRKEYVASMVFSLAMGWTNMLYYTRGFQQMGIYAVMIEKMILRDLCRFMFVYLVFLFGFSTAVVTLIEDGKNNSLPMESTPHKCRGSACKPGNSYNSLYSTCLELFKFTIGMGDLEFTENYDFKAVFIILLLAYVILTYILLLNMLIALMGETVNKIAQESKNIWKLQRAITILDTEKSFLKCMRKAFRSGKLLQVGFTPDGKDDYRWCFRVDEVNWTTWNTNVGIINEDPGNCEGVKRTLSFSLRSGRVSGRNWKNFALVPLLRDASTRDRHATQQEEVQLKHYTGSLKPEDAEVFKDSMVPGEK
Description for rTRPV1(Y511G): Averaged (n=30 cells) ratiometric calcium responses of HEK293T cells expressing rat TRPV1 (rTRPV1), as a function of time. Application of different SAVA (as indicated; 300 μM; yellow bar) was followed by capsaicin (CAP; 5 μM; red bar). […] Same as B, but recorded from HEK293T cells expressing rTRPV1(Y511G) in which VBS domain is mutated. […] D. Superimposed capsaicin-(1 μM; grey line) and SAVA-(compound 6 in B; 300 μM; black line)-induced currents (Vholding=−40 mV) recorded in whole cell configuration from HEK293T cells expressing the rTRPV1. Recording were done on cells with similar TRPV1 expressing levels (determined by the initial response to pH 5.5). […] E. Current-clamp recording (I=0) in the whole cell configuration from small-diameter (C-fiber) rat TG neurons (P2 old pup).
To verify, that the evoked response of our TRPV1-positive compounds is through the Vanilloid-binding site (VBS), we analyzed their activation profile on TRPV1(Y511 G) construct.
Next, the new scaffolds-evoked TRPV1 currents were analyzed using the voltage-clamp whole-cell configuration of the patch-clamp technique on HEK293T cells stably transfected with the rTRPV1 gene.

Regarding `NCCOB(c1ccccc1)c1ccccc1` [2-APB, 2-aminoethoxydiphenyl borate], the “calcium response of cells expressing mutant rTRPV1(Y511G)” value on rTRPV1(Y511G) is “responded”. Consider `COc1cc(CNC(=O)CCCC/C=C/C(C)C)ccc1O` [capsaicin, Capsaicin], for which the “depolarization and action potential firing” value in experiment [1] was “pronounced depolarization and burst of action potentials, followed by depolarization block; also recorded: robust depolarization with burst of action potentials followed by depolarization block”.
